Legend:
[1] = tested on: patients with Bipolar I Disorder, Most Recent Episode Depressed; assay: Six-week double blind placebo-controlled dose-escalation study of uridine in bipolar I depression: MADRS; assay type: in vivo, human; conditions: for True difference in mean MADRS between groups (uridine vs placebo): week 6; for Mean change of MADRS from baseline (treatment response), percent: total group; for Average improvement on MADRS over placebo: weeks 2-6
[2] = tested on: patients with Bipolar I Disorder, Most Recent Episode Depressed; assay: Same six-week study: Hamilton Anxiety Scale (HAM-A); assay type: in vivo, human
Experimental: The YMRS is an 11 item scale designed to measure core manic symptoms (Young et al., Br. J. Psychiatry, 133:429-435). A cumulative score of 15 or greater on the YMRS was considered evidence of a treatment emergent affective switch. The HAM-A scale is a measure of global anxiety, including cognitive and somatic symptoms.
A six-week, double blind, placebo-controlled, dose-escalation study was performed to assess the safety and efficacy of uridine in bipolar I depression. Eight-four (84) patients of both sexes were enrolled at twelve sites, randomized on a 1:1 basis to receive either placebo or uridine. To decrease the probability of a false negative result, uridine or placebo were given as monotherapy, and no concurrent bipolar medications, including mood stabilizers, atypical antipsychotics, antidepressants, anticonvulsants or other psychotropic medications were allowed during the study. Patients taking such medications were tapered gradually during the 28 days prior to initiation of the trial. Patients were evaluated each week over the 6-week trial period, with an extensive intervention plan for any patient having exacerbation of bipolar or depressive symptoms. […]
The effect on anxiety in uridine-treated bipolar I depression subjects in comparison to placebo was evaluated using the mean HAM-A scores for each group.

[3] = tested on: patients (e.g. hereditary orotic aciduria); conditions: cited from earlier work
[4] = in vivo; cited from earlier work
[5] = Wk 10, follow-up a month after treatment concluded

O=c1ccn([C@@H]2O[C@H](CO)[C@@H](O)[C@H]2O)c(=O)[nH]1 [uridine]
MADRS change from baseline, as percentage of the baseline score, Δ (%) ([1]; Baseline (Study Day 1)): 0%
Average MADRS score ([1]; Baseline (Study Day 1), all patients): 30.28
Difference in change from baseline of average MADRS vs placebo (Δ) ([1]; Day 43, subjects with <2 episodes of mania or hypomania): −8.2
Difference in change from baseline of average MADRS vs placebo (Δ) ([1]; Day 43, subjects with <10 episodes of depression): −1.7
Difference in change from baseline of average MADRS vs placebo (Δ) ([1]; Day 43, subjects with ≧10 episodes of depression, p=0.18): 5.8
MADRS change from baseline, as percentage of the baseline score, Δ (%) ([1]; Wk 1): −25.8%
Average MADRS score ([1]; Wk 1, oral 2-4 g/day, all patients): 22.46
MADRS change from baseline, as percentage of the baseline score, Δ (%) ([1]; Wk 2): −37.9%
Average MADRS score ([1]; Wk 2, oral 2-4 g/day, all patients): 18.81
MADRS change from baseline, as percentage of the baseline score, Δ (%) ([1]; Wk 3): −52.5%
Average MADRS score ([1]; Wk 3, oral 2-4 g/day, all patients): 15.90
MADRS change from baseline, as percentage of the baseline score, Δ (%) ([1]; Wk 4): −54.0%
Average MADRS score ([1]; Wk 4, oral 2-4 g/day, all patients): 13.93
MADRS change from baseline, as percentage of the baseline score, Δ (%) ([1]; Wk 5): −50.6%
Average MADRS score ([1]; Wk 5, oral 2-4 g/day, all patients): 14.97
MADRS change from baseline, as percentage of the baseline score, Δ (%) ([1]; Wk 6): −58.1%
Average MADRS score ([1]; Wk 6 (end of treatment), oral 2-4 g/day, all patients): 12.69
Average MADRS score [1, 5]: 15.91
MADRS change from baseline, as percentage of the baseline score, Δ (%) [1, 5]: −47.5%
Effect size from MERM change in mean MADRS score compared to placebo ([1]; baseline adjusted as a covariate, all patients): 0.43
Rebound in the MADRS assessment after end of dosing ([1]; final assessment 4 weeks after study drug administration was completed): no rebound
Difference of the mean MADRS scores in comparison to placebo (primary efficacy outcome) ([1]; mixed effects repeat measures, day 1 to day 43, total scores p=0.011, percent change from baseline p=0.014): statistically significant
Improvement in MADRS score (Uridine vs Placebo) ([1]; patients with <5 manic episodes, Day 1): −0.64
Improvement in MADRS score (Uridine vs Placebo) ([1]; patients with <5 manic episodes, Day 8): −3.57
Improvement in MADRS score (Uridine vs Placebo) ([1]; patients with <5 manic episodes, Day 15): −1.39
Improvement in MADRS score (Uridine vs Placebo) ([1]; patients with <5 manic episodes, Day 22): −1.20
Improvement in MADRS score (Uridine vs Placebo) ([1]; patients with <5 manic episodes, Day 29): −1.76
Improvement in MADRS score (Uridine vs Placebo) ([1]; patients with <5 manic episodes, Day 36): −4.62
Improvement in MADRS score (Uridine vs Placebo) ([1]; patients with <5 manic episodes, Day 43): −6.56
Response (MADRS vs placebo) ([1]; patients with a history of fewer than 2 episodes of mania): No positive response
Improvement in MADRS score (Uridine vs Placebo) ([1]; patients with ≧5 manic episodes, Day 1): 0.37
Improvement in MADRS score (Uridine vs Placebo) ([1]; patients with ≧5 manic episodes, Day 8): 1.63
Improvement in MADRS score (Uridine vs Placebo) ([1]; patients with ≧5 manic episodes, Day 15): 4.41
Improvement in MADRS score (Uridine vs Placebo) ([1]; patients with ≧5 manic episodes, Day 22): 6.33
Improvement in MADRS score (Uridine vs Placebo) ([1]; patients with ≧5 manic episodes, Day 29): 7.07
Improvement in MADRS score (Uridine vs Placebo) ([1]; patients with ≧5 manic episodes, Day 36): 3.20
Improvement in MADRS score (Uridine vs Placebo) ([1]; patients with ≧5 manic episodes, Day 43 (week 6)): 5.88
Treatment response, MADRS change from baseline ([1]; study end (week 6), subset with 15 or more episodes of depression): 58%
MADRS improvement from baseline ([1]; study end, subset with <15 historic episodes of depression): 58%
Difference in mean MADRS scores between treatment and placebo groups ([1]; subset with <15 historic episodes of depression (49 subjects)): no appreciable difference
Average true difference in mean MADRS (corrected for baseline) vs placebo ([1]; week 3 to week 6, all patients): 3.2 points
True difference in mean MADRS vs placebo (Δ) ([1]; week 6 (Day 43), subjects with ≧2 episodes of mania or hypomania, p=0.11): 5.7
True difference in mean MADRS between groups (uridine vs placebo) ([1]; subjects with 15 or more episodes of mania and/or hypomania): 9.46
True difference in mean MADRS between groups (uridine vs placebo) ([1]; subjects with history of 15 or more episodes of depression): 6.35
True difference in mean MADRS between groups (uridine vs placebo) ([1]; total score (all subjects)): 3.04
Mean change of MADRS from baseline ([1]; week 6 end of study, all patients): 17.6 points
Mean change of MADRS from baseline (treatment response), percent ([1]; week 6 end of study): 58%
Mean change of MADRS from baseline (treatment response), percent ([1]; week 6 end of study, listed as RG2417): 58.1%
Average improvement on MADRS over placebo ([1]; all patients in the study, p=0.01): 3.0 points
Average improvement on MADRS over placebo ([1]; patients with more than 5 episodes of depression (n=50), p<0.001): 5.5 points
Mean HAM-A score vs placebo, MERM over the treatment period [2]: no difference between groups
Effect of higher dosages in some patients ([3]; dosages higher than 1000 mg/kg/day): mild diarrhea
Toxic effects of pure uridine, long-term experience ([3]; dosages of up to 1000 mg/kg/day): no known toxic effects
Plasma uridine levels ([3]; oral, doses greater than 240 mg/kg): 60 to 80 µM
Side effects noted with high dose oral uridine ([3]; oral, typically at doses greater than 240 mg/kg): diarrhea and abdominal cramps
Volume distribution [4]: around 0.634 liters/kg

Reference: patent US20110160158A1, “METHODS OF TREATMENT OF BIPOLAR DISORDER” (REPLIGEN CORPORATION, priority 2008, published 2011)
